This is an account of results in patent publication US20130116336A1, “TREATMENT OF ATAXIA TELANGIECTASIA” (priority 2010, published 2013).

Data set [1] can be described thus: Animal study of alpha-tocotrienol quinone administration: pharmacokinetics in rats. The conditions noted are these: rat, in vivo, 10 mg/kg. The procedure: (§1) The particular dosage appropriate for a specific patient is determined by dose titration. […] There is less than dose-proportionality since for an increase in doses of 2.4:6:10:20 there is only an increase in AUCs of 1.5:2.8:4.0:6.7. This lack of dose-proportionality may be due to decreased absorption since there is no change in t1/2 over dose range. Alpha-tocotrienol quinone tested in rats was safe when given acutely up to 2000 mg/kg.

A short description of a further data set: in vivo. The conditions noted are these: rat; for NOAEL: female. The procedure: as §1
The starting dose can be estimated based on the United States Food and Drug Administration guidelines titled “Estimating the Maximum Safe Starting Dose in Initial Clinical Trials for Therapeutics in Adult Healthy Volunteers” (July 2005) as well as the International Conference on Harmonisation of Technical Requirements for Registration of Pharmaceuticals for Human Use (ICH) guidelines titled “Guidance on Non-clinical Safety Studies for the Conduct of Human Clinical Trials and Marketing Authorization for Pharmaceuticals” (July 2008). Per ICH guidelines, predicted exposures from the starting dose should not exceed 1/50th the NOAEL (No-Adverse-Observed-Effect-Level) in the more sensitive species on a mg/m^2 basis. Following a single oral dose of alpha-tocotrienol quinone, the NOAEL was established to be 500 mg/kg for the female rat, i.e. 3,000 mg/m2. This dosage would be equivalent to 81 mg/kg in an adult human. 1/50th of 81 mg/kg is 1.6 mg/kg, i.e. 110 mg for a 70 kg adult, or 16 mg for a 10 kg child. This dose can be administered once, twice, or three times daily.

Data set [2] relates to Ataxia-Telangiectasia fibroblast cells AG04405 (AT05). Description: Ataxia-Telangiectasia cell line assay: rescue of BSO-stressed A-T fibroblasts, Calcein AM viability. Format: cell-based. Conditions: A-T fibroblasts AT05 stressed with 1 mM BSO for 48 h, Calcein AM fluorescence, tested three times, read-out: ED50, protection of ataxia telangiectasia cells. The procedure: Alpha-Tocotrienol quinone, was tested for its ability to rescue Ataxia-Telangiectasia fibroblast cells obtained from the Coriell Cell Repositories (Camden, N.J.; repository number AG04405 (AT05), when the cells were stressed by addition of L-buthionine-(S,R)-sulfoximine (BSO), as described in Jauslin et al., Hum. Mol. Genet. 11(24):3055 (2002), Jauslin et al., FASEB J. 17:1972-4 (2003), and International Patent Application WO 2004/003565.
MEM (a medium enriched in amino acids and vitamins, catalog no. 1-31F24-I) and Medium 199 (M199, catalog no. 1-21F22-I) with Earle's Balanced Salts, without phenol red, were purchased from Bioconcept. Fetal Calf Serum was obtained from PAA Laboratories. Basic fibroblast growth factor and epidermal growth factor were purchased from PeproTech. Penicillin-streptomycin-glutamine mix, L-buthionine (S,R)-sulfoximine, and insulin from bovine pancreas were purchased from Sigma. Calcein AM was purchased from Molecular Probes. […]
100 μL of PBS containing 1.2 μM Calcein AM were then added to each well. […] After that time the PBS was discarded, the plate gently tapped on a paper towel and fluorescence (excitation/emission wavelengths of 485 nm and 525 nm, respectively) was read on a Gemini fluorescence reader. […]

Data set [3] is described as follows: Animal study of alpha-tocotrienol quinone administration: pharmacokinetics in fasted dogs. The conditions noted are these: dog, in vivo, po, 10 mg/kg. The procedure:
as §1

Consider `CC(C)=CCC/C(C)=C/CC/C(C)=C/CCC(C)(O)CCC1=C(C)C(=O)C(C)=C(C)C1=O` (stereo not drawn) [Alpha-tocotrienol quinone], for which, in data set [1], the Cmax (commonly the highest concentration seen after dosing) is 931 ng/mL; the time of peak concentration (Tmax) – broadly, the time from dosing to the highest level – was 3.5 h; the bioavailability (usually the share of a dose that reaches the circulation, judged against a reference dose that is usually intravenous) is ~90%; the half-life (commonly the time in which the quantity being followed falls by half) was 3.5 h. Moreover, in the data set “in vivo”, the NOAEL (as a rule, the highest tested level that showed no adverse finding) is 81 mg/kg and the “dose at which safe when given acutely” value is given as “up to 2000 mg/kg”. Also, in the data set “in vivo” (po), the NOAEL is 500 mg/kg and the “NOAEL on body surface basis” value is on record as 3,000 mg/m2. The EC50 in data set [2] is 28 nM. Also, in data set [3], the Cmax was 442 ng/mL, the Tmax amounted to 2.8 h, the bioavailability is ~16% and the half-life is 7.6 h.
